The source of these data is patent US6348485B1, “Method for treating or preventing sleep disorders” (Takeda Chemical Industries, Ltd., priority 1998, dated 2002).

Data set [1] has as its system crab-eating macaques (Macaca fascicularis). The data set can be described thus: Observation of general behavior of monkeys (video camera). It is filed as in vivo. To be noted: triazolam 0.03 mg/kg p.o. alone. On the procedure:
(§1) Six female crab-eating macaques (Macaca fascicularis), weighing 2.8-4.2 kg, were housed individually in a room maintained at 24±1° C. with a 12-h light/dark cycle (light on 6:00). Under sodium pentobarbital anesthesia, stainless steel screw and bipolar electrodes for electroencephalogram (EEG), electromyogram (EMG) and electro-oculogram (EOG) were implanted. After recovery from surgery, the monkeys were well habituated to the recording chamber (60×60×80 cm) located in a sound-proof and electrically shielded room. Compound A (0.003 mg/kg) and/or triazolam (0.03 mg/kg) were given orally 17:50-17:55. Compound A and triazolam were suspended in 0.5% methylcellulose solution. The control monkey was given 0.5% MC. The behaviors of subjects were observed using a video camera with infrared light sensitivity. EEG, EMG and EOG were recorded on a MO disk with an electroencephalograph (EE5518, NEC Medical Systems, Tokyo, Japan). All recordings were carried out from 18:00 until 6:00. The EEG power spectral analysis was also performed continuously by means of a fast Fourier transform (FFT) system equipped with a personal computer. […] Latencies of each sleep stage (the time until the first appearance of each sleep stage) were determined from 18:00. The occurrence of each sleep stage at nighttime and other sleep parameters were also determined.

For data set [2] the test system is unchanged. The data set can be described thus: Sleep latencies at nighttime in monkeys (EEG/EMG/EOG sleep stage classification). In kind it is in vivo. The conditions noted are these: vs control. The protocol: as §1

Molecules are shown by their SMILES.

`Cc1nnc2n1-c1ccc(Cl)cc1C(c1ccccc1Cl)=NC2` [triazolam, 8-chloro-6-(2-chlorophenyl)-1-methyl-4H-[1,2,4]triazolo[4,3-a][1,4]benzodiazepine]: in data set [1], the ataxia and sedation entry is on record as “did not cause”; the “effect on general behavior” value is on record as “did not affect”. For the same compound, the “effect on the sleep latencies” value in data set [2] (triazolam 0.03 mg/kg p.o. alone) was “no significant effects”.
In the case of `CCC(=O)NCC[C@@H]1CCc2ccc3c(c21)CCO3` [compound A, (S)-N-[2-(1,6,7,8-tetrahydro-2H-indeno[5,4-b]furan-8-yl)ethyl]propionamide], in data set [2] (compound A 0.003 mg/kg p.o. alone), the “effect on the latency of any sleep stages” value is given as “no significant effects”.
